Where “and” joins values, the source holds several entries; their conditions need not be identical. Equal entries are not always repeated. Where two headings read alike, the source gives them in different places.

For test [1], the system named is Ogawa P. gingivalis LPS stimulated whole blood cells. Kind of test: Inhibition of LPS-induced cytokines in whole blood. In kind it is cell-based, human. As to conditions: 10, 5, 2.5 ug/mL. The text has this: Table 4 provides the maximum levels of IL-4, IL-2 and IL-5 obtained, as well as ratios of TNF to IL-10, and ratios of IL-10 to TNF. Inhibition data for IL-8, reported as a percentage, are also provided on the right hand side of Table 4. For example, 90% inhibition would calculate to a 90% reduction of cytokine levels. MIP-1β results were similar. […]

The subject of another test is human whole blood. In kind it is cell-based. As to conditions: for cytokine stimulation in human whole blood cultures: overnight culture.
For test [2], the system named is L. monocytogenes 10403 serotype. Kind of test: Murine Listeria monocytogenes challenge model. In kind it is in vivo, Mice. As to conditions: 1 μg intravenously in 0.2% TEOA, challenge two days later; FIGS. 14-17. The protocol:
This example provides experiments evaluating the induction of non-specific resistance in the murine Listeria monocytogenes challenge model performed using various AGPs and MPL. Mice (5 per group) were treated intravenously with the 1 μg of an AGP or MPL solubilized in 0.2% TEOA. Two days later the mice were challenged intravenously with a ˜10^5 L. monocytogenes 10403 serotype (provided by M. L. Gray, Montana State University, Bozeman, Mont.). Two days after the challenge, the mice were sacrificed and the number of colony forming units (CFUs) in the spleens of individual mice were determined by plating 10-fold serial dilutions of splenic homogenates on tryptic soy agar plates. The degree of protection afforded by a given AGP or MPL was calculated by subtracting the average number of bacteria per spleen (log 10 value) in the group of mice treated with a given compound, from the average number of bacteria per spleen (log 10 value) in a control group that was “sham” treated with vehicle (0.2% TEOA) prior to challenge with L. monocytogenes.

As for `CCCCCCCCCCCCCC(=O)O[C@H](CCCCCCCCCCC)CC(=O)N[C@H]1[C@H](OC[C@H](NC(=O)C[C@@H](CCCCCCCCCCC)OC(=O)CCCCCCCCCCCCC)C(=O)O)O[C@H](CO)[C@@H](OP(=O)(O)O)[C@@H]1OC(=O)C[C@@H](CCCCCCCCCCC)OC(=O)CCCCCCCCCCCCC.CCN(CC)CC` [RC-512], the “% inhib. LPS IL-8” value in test [1] is given as −1%. For the same compound, in the test on human whole blood (donor 1), the “IL-1β cba2” value is reported as 3230. For the same compound, the IL10/TNFα cba with human whole blood (donor 2, ratio of IL-10 to TNF) amounted to 0.4. For the same compound, the TNFα/IL10 cba in the test on human whole blood (donor 2, ratio of TNF to IL-10) was found to be 3.9.

Consider `CCCCCCCCCCC[C@H](CC(=O)N[C@H]1[C@H](OC[C@H](NC(=O)C[C@@H](CCCCCCCCCCC)OC(=O)CCCCCCCCC)C(N)=O)O[C@H](CO)[C@@H](OP(=O)(O)O)[C@@H]1OC(=O)C[C@@H](CCCCCCCCCCC)OC(=O)CCCCCCCCC)OC(=O)CCCCCCCCC.CCN(CC)CC` [RC-522], for which the “protection against L. monocytogenes challenge (reduction of log 10 bacteria per spleen vs vehicle)” value in test [2] was “protection that was equal to or greater than that provided by MPL”. Moreover, the IL10/TNFα cba with human whole blood (donor 1, ratio of IL-10 to TNF) was 2.7. Besides, the TNFα/IL10 cba with human whole blood (donor 1, ratio of TNF to IL-10) was 0.4.

For the compound `CCCCCCCCCCCCCC(=O)O[C@H](CCCCCCCCCCC)CC(=O)NCCCO[C@@H]1O[C@H](CO)[C@@H](OP(=O)(O)O)[C@H](OC(=O)C[C@@H](CCCCCCCCCCC)OC(=O)CCCCCCCCCCCCC)[C@H]1NC(=O)C[C@@H](CCCCCCCCCCC)OC(=O)CCCCCCCCCCCCC.CCN(CC)CC` [RC-525], the IL10/TNFα cba is listed as 3.7 with human whole blood (donor 1, ratio of IL-10 to TNF) and 0.7 with human whole blood (donor 2, ratio of IL-10 to TNF). Moreover, the TNFα/IL10 cba is 1.8 with human whole blood (donor 1, ratio of TNF to IL-10) and 1.2 with human whole blood (donor 2, ratio of TNF to IL-10).

Turning to `CCCCCCCCCCC[C@H](CC(=O)N[C@H]1[C@H](OC[C@H](NC(=O)C[C@@H](CCCCCCCCCCC)OC(=O)CCCCCCCC)C(=O)O)O[C@H](CO)[C@@H](OP(=O)(O)O)[C@@H]1OC(=O)C[C@@H](CCCCCCCCCCC)OC(=O)CCCCCCCC)OC(=O)CCCCCCCC.CCN(CC)CC` [RC-537], the “% inhib. LPS IL-8” value in test [1] is recorded as 33%. Further, the “IL-1β cba2” value with human whole blood was 8353.

Regarding `CCCCCCCCCCC[C@H](CC(=O)N[C@H]1[C@H](OC[C@H](NC(=O)C[C@@H](CCCCCCCCCCC)OC(=O)CCCCCCCCCC)C(=O)O)O[C@H](CO)[C@@H](OP(=O)(O)O)[C@@H]1OC(=O)C[C@@H](CCCCCCCCCCC)OC(=O)CCCCCCCCCC)OC(=O)CCCCCCCCCC.CCN(CC)CC` [RC-538], in test [1], the “% inhib. LPS IL-8” value was −3%. Further, in the test with human whole blood, the IL10/TNFα cba was 0.5 and 0.3; the “IL-1β cba2” value stood at 7767; the TNFα/IL10 cba was 2.3 and 4.

As for `CCCCCCCCCCC[C@H](CC(=O)N[C@@H](CCO)CO[C@@H]1O[C@H](CO)[C@@H](OP(=O)(O)O)[C@H](OC(=O)C[C@@H](CCCCCCCCCCC)OC(=O)CCCCCCCCC)[C@H]1NC(=O)C[C@@H](CCCCCCCCCCC)OC(=O)CCCCCCCCC)OC(=O)CCCCCCCCC.CCN(CC)CC` [RC-541], in test [2], the “protection against L. monocytogenes challenge (reduction of log 10 bacteria per spleen vs vehicle)” value is listed as “protection that was equal to or greater than that provided by MPL”.

`CCCCCCCCCCC[C@H](CC(=O)N[C@@H](CO)CO[C@@H]1O[C@H](CO)[C@@H](OP(=O)(O)O)[C@H](OC(=O)C[C@@H](CCCCCCCCCCC)OC(=O)CCCCCCCCC)[C@H]1NC(=O)C[C@@H](CCCCCCCCCCC)OC(=O)CCCCCCCCC)OC(=O)CCCCCCCCC.CCN(CC)CC` [RC-545]: the “protection against L. monocytogenes challenge (reduction of log 10 bacteria per spleen vs vehicle)” value in test [2] is listed as “protection that was equal to or greater than that provided by MPL”.

On to `CCCCCCCCCCC[C@H](CC(=O)N[C@H]1[C@H](OC[C@@H](NC(=O)C[C@@H](CCCCCCCCCCC)OC(=O)CCCCCCCCC)C(=O)O)O[C@H](CO)[C@@H](OP(=O)(O)O)[C@@H]1OC(=O)C[C@@H](CCCCCCCCCCC)OC(=O)CCCCCCCCC)OC(=O)CCCCCCCCC.CCN(CC)CC` [RC-547], for which the “protection against L. monocytogenes challenge (reduction of log 10 bacteria per spleen vs vehicle)” value in test [2] is given as “protection that was equal to or greater than that provided by MPL”.

Turning to `CCCCCCCCCCC[C@H](CC(=O)N[C@H]1[C@H](OC[C@H](NC(=O)C[C@@H](CCCCCCCCCCC)OC(=O)CCCCCC)C(=O)O)O[C@H](CO)[C@@H](OP(=O)(O)O)[C@@H]1OC(=O)C[C@@H](CCCCCCCCCCC)OC(=O)CCCCCC)OC(=O)CCCCCC.CCN(CC)CC` [RC-554], in test [1], the “% inhib. LPS IL-8” value turned out to be 100%. Moreover, the “IL-1β cba2” value in the test with human whole blood (donor 1) stood at 545. For the same compound, the IL10/TNFα cba in the test with human whole blood (donor 2, ratio of IL-10 to TNF) was 1.1. Besides, in the test with human whole blood (donor 2, ratio of TNF to IL-10), the TNFα/IL10 cba came to 0.9. The “cytokine stimulation in human whole blood cultures” value (shortened to “cytokine stimulation”) with human whole blood was “little if any cytokine stimulation”.

For `CCCCCCCCCCC[C@H](CC(=O)N[C@H]1[C@H](OC[C@H](NC(=O)C[C@@H](CCCCCCCCCCC)OC(=O)CCCCCCC)C(=O)O)O[C@H](CO)[C@@H](OP(=O)(O)O)[C@@H]1OC(=O)C[C@@H](CCCCCCCCCCC)OC(=O)CCCCCCC)OC(=O)CCCCCCC.CCN(CC)CC` [RC-555], the “% inhib. LPS IL-8” value in test [1] is 99%. Besides, in the test with human whole blood (donor 1), the “IL-1β cba2” value is 519. Moreover, the IL10/TNFα cba in the test with human whole blood (donor 2, ratio of IL-10 to TNF) was found to be 1.2. Also, in the test with human whole blood (donor 2, ratio of TNF to IL-10), the TNFα/IL10 cba came out at 0.8. For the same compound, the “cytokine stimulation” value in the test on human whole blood is “little if any cytokine stimulation”.

`CCCCCCCCCCCCCC(=O)O[C@H](CCCCCCCCCCC)CC(=O)NCCCCO[C@@H]1O[C@H](CO)[C@@H](OP(=O)(O)O)[C@H](OC(=O)C[C@@H](CCCCCCCCCCC)OC(=O)CCCCCCCCCCCCC)[C@H]1NC(=O)C[C@@H](CCCCCCCCCCC)OC(=O)CCCCCCCCCCCCC.CCN(CC)CC` [RC-557]: in the test on human whole blood (donor 1, ratio of IL-10 to TNF), the IL10/TNFα cba amounted to 0.6. The TNFα/IL10 cba with human whole blood (donor 1, ratio of TNF to IL-10) stood at 0.6; in the test on human whole blood (donor 2, ratio of TNF to IL-10), 0.5.

On to `CCCCCCCCCCC[C@H](CC(=O)N[C@H]1[C@H](OCCCN(CC(=O)O)C(=O)C[C@@H](CCCCCCCCCCC)OC(=O)CCCCCCCCC)O[C@H](CO)[C@@H](OP(=O)(O)O)[C@@H]1OC(=O)C[C@@H](CCCCCCCCCCC)OC(=O)CCCCCCCCC)OC(=O)CCCCCCCCC.CCN(CC)CC` [RC-558], for which the “protection against L. monocytogenes challenge (reduction of log 10 bacteria per spleen vs vehicle)” value in test [2] was “protection that was equal to or greater than that provided by MPL”.

Take `CCCCCCCCCCCC(=O)O[C@H](CCCCCCCCCCC)CC(=O)N[C@H]1[C@H](OC[C@H](NC(=O)C[C@@H](CCCCCCCCCCC)OC(=O)CCCCCCCCCCC)C(=O)O)O[C@H](CO)[C@@H](OP(=O)(O)O)[C@@H]1OC(=O)C[C@@H](CCCCCCCCCCC)OC(=O)CCCCCCCCCCC.CCN(CC)CC` [RC-560]: in test [1], the “% inhib. LPS IL-8” value is listed as −1%. For the same compound, in the test with human whole blood, the “IL-1β cba2” value is recorded as 5833.

With `CCCCCCCCCCC[C@H](CC(=O)N[C@H]1[C@H](OC[C@H](NC(=O)C[C@@H](CCCCCCCCCCC)OC(=O)CCCCCCCCC)C(=O)O)O[C@H](CO)[C@@H](OP(=O)(O)O)[C@@H]1OC(=O)C[C@@H](CCCCCCCCCCC)OC(=O)CCCCC)OC(=O)CCCCCCCCC.CCN(CC)CC` [RC-566], the “% inhib. LPS IL-8” value in test [1] is on record as 93%. In the test on human whole blood, the “cytokine stimulation” value is given as “little if any cytokine stimulation”.

As for `CCCCCCCCCCC[C@H](CC(=O)N[C@H]1[C@H](OC[C@H](NC(=O)C[C@@H](CCCCCCCCCCC)OC(=O)CCCCCCCCC)C(=O)O)O[C@H](CO)[C@@H](OP(=O)(O)O)[C@@H]1OC(=O)C[C@@H](CCCCCCCCCCC)OC(=O)CCCCC)OC(=O)CCCCC.CCN(CC)CC` [RC-567], the “% inhib. LPS IL-8” value in test [1] stood at 100%. In the test with human whole blood, the “cytokine stimulation” value was “little if any cytokine stimulation”.

With `CCCCCCCCCCC[C@H](CC(=O)N[C@H]1[C@H](OC[C@H](NC(=O)C[C@@H](CCCCCCCCCCC)OC(=O)CCCCC)C(=O)O)O[C@H](CO)[C@@H](OP(=O)(O)O)[C@@H]1OC(=O)C[C@@H](CCCCCCCCCCC)OC(=O)CCCCC)OC(=O)CCCCCCCCC.CCN(CC)CC` [RC-568], the “% inhib. LPS IL-8” value in test [1] was determined as 96%. In the test with human whole blood, the “cytokine stimulation” value is “little if any cytokine stimulation”.

With `CCCCCCCCCCC[C@H](CC(=O)N[C@H]1[C@H](OC[C@H](NC(=O)C[C@@H](CCCCCCCCCCC)OC(=O)CCCCC)C(=O)O)O[C@H](CO)[C@@H](OP(=O)(O)O)[C@@H]1OC(=O)C[C@@H](CCCCCCCCCCC)OC(=O)CCCCCCCCC)OC(=O)CCCCC.CCN(CC)CC` [RC-570], the “% inhib. LPS IL-8” value in test [1] is given as 100%. Further, the “cytokine stimulation” value in the test on human whole blood is listed as “little if any cytokine stimulation”.

With `CCCCCCCCCCCCCC(=O)O[C@H](CCCCCCCCCCC)CC(=O)NCCCCCCO[C@@H]1O[C@H](CO)[C@@H](OP(=O)(O)O)[C@H](OC(=O)C[C@@H](CCCCCCCCCCC)OC(=O)CCCCCCCCCCCCC)[C@H]1NC(=O)C[C@@H](CCCCCCCCCCC)OC(=O)CCCCCCCCCCCCC.CCN(CC)CC` [RC-571], in the test on human whole blood (donor 1, ratio of IL-10 to TNF), the IL10/TNFα cba is listed as 8.6. The TNFα/IL10 cba in the test with human whole blood (donor 1, ratio of TNF to IL-10) turned out to be 0.5.

Regarding `CCCCCCCCCCC[C@H](CC(=O)N[C@@H](CCC(=O)O)CO[C@@H]1O[C@H](CO)[C@@H](OP(=O)(O)O)[C@H](OC(=O)C[C@@H](CCCCCCCCCCC)OC(=O)CCCCCCCCC)[C@H]1NC(=O)C[C@@H](CCCCCCCCCCC)OC(=O)CCCCCCCCC)OC(=O)CCCCCCCCC.CCN(CC)CC` [RC-573], the “protection against L. monocytogenes challenge (reduction of log 10 bacteria per spleen vs vehicle)” value in test [2] is “protection that was equal to or greater than that provided by MPL”.

These data come from US8318697B2, “Prophylactic and therapeutic treatment of infectious and other diseases with mono- and disaccharide-based compounds” (Corixa Corporation, priority 2000, dated 2012).
